Laboratory results reported in patent US11058680B2, “Combinations of opioid/TLR4 antagonists and acetaminophen for use in the treatment of emotional pain and insomnia” (Allodynic Threapeutics, LLC, priority 2016, dated 2021).
Where “and” joins values, the source holds several entries; their conditions need not be identical. Equal entries are not always repeated.

Test system: migraine attacks
Test: Naltrexone/acetaminophen open-label pilot study, acute treatment of migraine: headache pain (4-point scale; relief score ≤1, pain-free score = 0), associated symptoms, additional meds
Assay type: in vivo, human
Protocol: Sixteen unique patients were enrolled in an open phase pilot study for the acute treatment of migraine attacks, insomnia, and emotional pain. Of the sixteen patients, eleven were evaluated for one migraine attack, one for two attacks, two for four attacks, one for six attacks, and one for fourteen attacks. A total of forty-one […] treatments were evaluated. Patients received a single dose of one of the following treatment options:
The majority of the patients remained in the clinic for observation for 2 hours after dosing. They completed headache diary assessments immediately before and after dosing at time points: 7, 15, and 30 minutes; and 1, 1.5, 2, 3, 6, 12, 24, and 48 hours. Headache pain was assessed on a 4-point scale (0=none; 1=mild; 2=moderate; 3=severe). The assessment of photophobia, phonophobia, nausea, and neck/shoulder pain was assessed as present or absent. The assessment of emotional pain was recorded on a 4-point scale (0=none, 1=mild, 2=moderate, 3=severe). The assessment of difficulty sleeping or falling asleep (insomnia) was assessed on a 4-point scale (0=none, 1=mild, 2=moderate, 3=severe) at baseline, for the night before treatment and for the following nights at 24, and 48 hours. Patients recorded side effects severity at each time point. Patients recorded the time of the first rescue medication dose and all additional headache medications used within 48 hours. Patients were required to stay awake to record their assessments in the first 2 hours, sleeping was permitted thereafter. While asleep, assessments were completed according to patients' best estimation. For data analysis, it was assumed that a migraine attack is a unique patient. Patients were asked to specify (yes or no answer) to whether they experienced emotional pain symptoms such as: hurt feelings, sadness, fear, or anger. Patients who replied positively to having emotional pain were asked to specify the cause into one of the following options: relationship, work/school, money/debt, health, or loss/grief.

[1] = 1 h, NTX/APAP 3.25 mg/325 mg, NTX 3.25 mg
[2] = 1 h, NTX/APAP 5 mg/325 mg, NTX 5 mg
[3] = 1 h, NTX/APAP […]325 mg, NTX 1.5 mg
[4] = 1 h, naltrexone/acetaminophen 2.25 mg/325 mg (N=21), naltrexone 2.25 mg (N=9)
[5] = 90 min, NTX/APAP 2.25 mg/325 mg, NTX 2.25 mg
[6] = 90 min, NTX/APAP 3.25 mg/325 mg, NTX 3.25 mg
[7] = 90 min, NTX/APAP 5 mg/325 mg, NTX 5 mg
[8] = 90 min, NTX/APAP […]325 mg, NTX 1.5 mg
[9] = 90 min, naltrexone/acetaminophen 2.25 mg/325 mg (N=21), naltrexone 2.25 mg (N=9)
[10] = 2 h, NTX/APAP 2.25 mg/325 mg, NTX 2.25 mg
[11] = 2 h, NTX/APAP 3.25 mg/325 mg, NTX 3.25 mg
[12] = 2 h, NTX/APAP 5 mg/325 mg, NTX 5 mg
[13] = 2 h, NTX/APAP […]325 mg, NTX 1.5 mg
[14] = 2 h, naltrexone/acetaminophen 2.25 mg/325 mg (N=21), naltrexone 2.25 mg (N=9)
[15] = 3 h, NTX/APAP 2.25 mg/325 mg, NTX 2.25 mg

With `O=C1CC[C@@]2(O)[C@H]3Cc4ccc(O)c5c4[C@@]2(CCN3CC2CC2)[C@H]1O5` [naltrexone] the Headache pain-relief [1] was 3 (100) n (%), the “Most bothersome symptom free” value [1] was 2 (66) n (%) and the Nausea-free [1] was 3 (100) n (%). For the same compound, the Neck/shoulder pain-free [1] was 3 (100) n (%), the Phonophobia-free [1] was 2 (66) n (%) and the Photophobia-free [1] was 1 (33) n (%). The Additional meds taken [2] was 0, the Headache pain-free [2] was 0 n (%) and the Headache pain-relief [2] was 1 n (%). The “Most bothersome symptom free” value [2] was 1 n (%), the Nausea-free [2] was 1 n (%) and the Neck/shoulder pain-free [2] was 1 n (%). For the same compound, the Phonophobia-free [2] was 1 n (%), the Photophobia-free [2] was 1 n (%) and the Additional meds taken [3] was 0. For the same compound, the Headache pain-free [3] was 1 (33) n (%), the Headache pain-relief [3] was 2 (66) n (%) and the “Most bothersome symptom free” value [3] was 1 (33) n (%). For the same compound, the Nausea-free [3] was 3 (100) n (%), the Neck/shoulder pain-free [3] was 2 (66) n (%) and the Phonophobia-free [3] was 1 (33) n (%). For the same compound, the Photophobia-free [3] was 2 (66) n (%), the Additional meds taken (1 h, all doses combined) was 0 and the Headache pain-free (1 h, all doses combined) was 8 (50) n (%). For the same compound, the Headache pain-relief (1 h, all doses combined) was 13 (81) n (%), the “Most bothersome symptom free” value (1 h, all doses combined) was 11 (69) n (%) and the Nausea-free (1 h, all doses combined) was 12 (75) n (%). For the same compound, the Neck/shoulder pain-free (1 h, all doses combined) was 12 (75) n (%), the Phonophobia-free (1 h, all doses combined) was 12 (75) n (%) and the Photophobia-free (1 h, all doses combined) was 10 (63) n (%). It also gave a Headache pain-free (1 h, naltrexone 1.5 mg (N=3)) of 33%, a Headache pain-free [4] of 44% and a Headache pain-relief [4] of 88%. For the same compound, the Most bothersome symptom-free [4] was 77%, the Headache pain-free (1 h, naltrexone/acetaminophen 3.25 mg/325 mg (N=3), naltrexone 3.25 mg (N=3)) was 100% and the Additional meds taken [5] was 0 (0). For the same compound, the Headache pain-free [5] was 7 (77) n (%), the Headache pain-relief [5] was 9 (100) n (%) and the “Most bothersome symptom free” value [5] was 9 (100) n (%). For the same compound, the Nausea-free [5] was 9 (100) n (%), the Neck/shoulder pain-free [5] was 9 (100) n (%) and the Phonophobia-free [5] was 9 (100) n (%). The Photophobia-free [5] was 8 (88) n (%), the Additional meds taken [6] was 0 (0) and the Headache pain-free [6] was 3 (100) n (%). The Headache pain-relief [6] was 3 (100) n (%), the “Most bothersome symptom free” value [6] was 2 (66) n (%) and the Nausea-free [6] was 2 (66) n (%). The Neck/shoulder pain-free [6] was 3 (100) n (%), the Phonophobia-free [6] was 2 (66) n (%) and the Photophobia-free [6] was 2 (66) n (%). The Additional meds taken [7] was 0 (0), the Headache pain-free [7] was 1 (100) n (%) and the Headache pain-relief [7] was 1 (100) n (%). The “Most bothersome symptom free” value [7] was 1 (100) n (%), the Nausea-free [7] was 1 (100) n (%) and the Neck/shoulder pain-free [7] was 1 (100) n (%). For the same compound, the Phonophobia-free [7] was 1 (100) n (%), the Photophobia-free [7] was 1 (100) n (%) and the Additional meds taken [8] was 0 (0). For the same compound, the Headache pain-free [8] was 1 (33) n (%), the Headache pain-relief [8] was 3 (100) n (%) and the “Most bothersome symptom free” value [8] was 2 (66) n (%). For the same compound, the Nausea-free [8] was 3 (100) n (%), the Neck/shoulder pain-free [8] was 1 (33) n (%) and the Phonophobia-free [8] was 1 (100) n (%). The Photophobia-free [8] was 1 (100) n (%), the Additional meds taken (90 min, all doses combined) was 0 and the Headache pain-free (90 min, all doses combined) was 13 (81) n (%). For the same compound, the Headache pain-relief (90 min, all doses combined) was 16 (100) n (%), the “Most bothersome symptom free” value (90 min, all doses combined) was 14 (88) n (%) and the Nausea-free (90 min, all doses combined) was 16 (100) n (%). For the same compound, the Neck/shoulder pain-free (90 min, all doses combined) was 14 (88) n (%), the Phonophobia-free (90 min, all doses combined) was 13 (81) n (%) and the Photophobia-free (90 min, all doses combined) was 12 (75) n (%). The Headache pain-free (90 min, naltrexone 1.5 mg (N=3)) was 100%, the Headache pain-free [9] was 77% and 100% and the Headache pain-relief [9] was 100%. It also gave a Most bothersome symptom-free [9] of 100%, a Headache pain-free (90 min, naltrexone/acetaminophen 3.25 mg/325 mg (N=3), naltrexone 3.25 mg (N=3)) of 100% and an Additional meds taken [10] of 0. The Headache pain-free [10] was 7 (77) n (%), the Headache pain-relief [10] was 9 (100) n (%) and the “Most bothersome symptom free” value [10] was 9 (100) n (%). The Nausea-free [10] was 9 (100) n (%), the Neck/shoulder pain-free [10] was 9 (100) n (%) and the Phonophobia-free [10] was 9 (100) n (%). The Photophobia-free [10] was 8 (88) n (%), the Additional meds taken [11] was 0 and the Headache pain-free [11] was 3 (100) n (%). The Headache pain-relief [11] was 3 (100) n (%), the “Most bothersome symptom free” value [11] was 3 (100) n (%) and the Nausea-free [11] was 3 (100) n (%). For the same compound, the Neck/shoulder pain-free [11] was 3 (100) n (%), the Phonophobia-free [11] was 3 (100) n (%) and the Photophobia-free [11] was 3 (100) n (%). The Additional meds taken [12] was 0, the Headache pain-free [12] was 1 n (%) and the Headache pain-relief [12] was 1 n (%). The “Most bothersome symptom free” value [12] was 1 n (%), the Nausea-free [12] was 1 n (%) and the Neck/shoulder pain-free [12] was 1 n (%). For the same compound, the Phonophobia-free [12] was 1 n (%), the Photophobia-free [12] was 1 n (%) and the Additional meds taken [13] was 0. The Headache pain-free [13] was 3 (100) n (%), the Headache pain-relief [13] was 3 (100) n (%) and the “Most bothersome symptom free” value [13] was 3 (100) n (%). For the same compound, the Nausea-free [13] was 3 (100) n (%), the Neck/shoulder pain-free [13] was 3 (100) n (%) and the Phonophobia-free [13] was 3 (100) n (%). For the same compound, the Photophobia-free [13] was 3 (100) n (%), the Additional meds taken (2 h, combined doses) was 0 and the Headache pain-free (2 h, combined doses) was 14 (88) n (%). The Headache pain-relief (2 h, combined doses) was 16 (100) n (%), the “Most bothersome symptom free” value (2 h, combined doses) was 16 (100) n (%) and the Nausea-free (2 h, combined doses) was 16 (100) n (%). The Neck/shoulder pain-free (2 h, combined doses) was 16 (100) n (%), the Phonophobia-free (2 h, combined doses) was 16 (100) n (%) and the Photophobia-free (2 h, combined doses) was 16 (100) n (%). The Headache pain-free (2 h, naltrexone 1.5 mg (N=3)) was 100%, the Headache pain-free [14] was 77% and 100% and the Headache pain-relief [14] was 100%. For the same compound, the Most bothersome symptom-free [14] was 100%, the Headache pain-free (2 h, naltrexone/acetaminophen 3.25 mg/325 mg (N=3), naltrexone 3.25 mg (N=3)) was 100% and the Additional meds taken [15] was 0 (0). For the same compound, the Headache pain-free [15] was 7 (77) n (%), the Headache pain-relief [15] was 9 (100) n (%) and the “Most bothersome symptom free” value [15] was 9 (100) n (%). For the same compound, the Nausea-free [15] was 9 (100) n (%), the Neck/shoulder pain-free [15] was 9 (100) n (%) and the Phonophobia-free [15] was 9 (100) n (%).
